Source: PubChem BioAssay (NCI)
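GI50 is the concentration that inhibits growth by half. TGI is the concentration that stops growth completely.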

Legend:
Experiment in all cases: NCI anticancer screen, dose series, 384-well format
[1] = system: HOP-92 NSCLC
[2] = system: A549 NSCLC
[3] = system: U251 glioblastoma
[4] = system: MDA-MB-468 breast
[5] = system: ACHN renal
[6] = system: SW-620 colon
[7] = system: DU-145 prostate
[8] = system: MDA-MB-435 melanoma
[9] = system: COLO 205 colon
[10] = system: SN12C renal
[11] = system: SR leukemia
[12] = system: HOP-62 NSCLC
[13] = system: NCI/ADR-RES ovarian
[14] = system: T-47D breast
[15] = system: OVCAR-4 ovarian
[16] = system: LOX IMVI melanoma
[17] = system: CCRF-CEM leukemia
[18] = system: MOLT-4 leukemia
[19] = system: A498 renal
[20] = system: NCI-H322M lung
[21] = system: SNB-19 CNS
[22] = system: HS 578T breast
[23] = system: KM12 colon
[24] = system: K-562 leukemia
[25] = system: SF-268 CNS
[26] = system: NCI-H460 NSCLC

In the case of `COc1ccccc1S(=O)(=O)Nc1ccc2c(c1)CN(C)C(=O)N2`, the TGI [1] is reported as 66800 nM, the GI50 [2] is reported as 33.1 nM and the TGI [2] is reported as > 100000 nM. The GI50 [3] was 26.7 nM, the TGI [3] was 82.2 nM and the GI50 [4] was 17.1 nM. For the same compound, the TGI [4] was 34.7 nM, the GI50 [5] was 15.3 nM and the TGI [5] was > 100000 nM. For the same compound, the GI50 [6] was 31.1 nM, the TGI [6] was > 100000 nM and the GI50 [7] was 20.2 nM. The TGI [7] was 58.1 nM, the GI50 [8] was < 10 nM and the TGI [8] was < 10 nM. The GI50 [9] was < 10 nM, the TGI [9] was 62.6 nM and the GI50 [10] was 24.7 nM. The TGI [10] was > 100000 nM, the GI50 [11] was < 10 nM and the TGI [11] was < 10 nM. For the same compound, the GI50 [12] was 20.8 nM, the TGI [12] was > 100000 nM and the GI50 [13] was 12 nM. The TGI [13] was 27.1 nM, the GI50 [14] was 17200 nM and the TGI [14] was > 100000 nM. The GI50 [15] was 16.2 nM, the TGI [15] was > 100000 nM and the GI50 [16] was 21.3 nM. For the same compound, the TGI [16] was 87.1 nM, the GI50 [17] was < 10 nM and the TGI [17] was < 10 nM. The GI50 [18] was < 10 nM, the TGI [18] was 19.5 nM and the GI50 [19] was < 10 nM. For the same compound, the TGI [19] was 60700 nM, the GI50 [20] was 18.8 nM and the TGI [20] was > 100000 nM. The GI50 [21] was 19.8 nM, the TGI [21] was 20000 nM and the GI50 [22] was < 10 nM. The TGI [22] was 19.2 nM, the GI50 [23] was 18.8 nM and the TGI [23] was 71.4 nM. The GI50 [24] was < 10 nM, the TGI [24] was 18 nM and the GI50 [25] was 20.3 nM. For the same compound, the TGI [25] was 134 nM, the GI50 [26] was 21.3 nM and the TGI [26] was 45.3 nM.
